melting point | SMILES
82 to 84 °C | O=C(OCc1ccccc1)C(C(=O)OCc1ccccc1)c1ncc(C(F)(F)F)cc1[N+](=O)[O-]
153 to 155 °C | Cc1nn(CC(F)(F)COC(=O)CN(C)C)c(-c2ccc(F)cc2)c1-c1ccc2c(c1)NC(=O)CO2
100 to 105 °C | COc1cc2c(cc1OC)CN(CCCCc1ccc(NC(=O)c3cnc4cc(C)c(C)cc4n3)cc1)CC2
216 to 217 °C | CCn1c2c(c3ccccc31)Cc1c(CO)c(CO)c(C)n1C2
208 to 210 °C | CCOC(=O)c1cn(CCCl)c2cc(Cl)ccc2c1=O
112 to 114 °C | CCOC(=O)N1CCC(=C2c3cc(F)ccc3CCc3cccnc32)CC1
151 to 152 °C | CC1=CC(OC(=O)c2ccc([N+](=O)[O-])cc2)C(O)C(C)(C)CC1=O (stereo unspecified)
114 to 116 °C | CC(=O)NCCC1CCc2ccc3nc(C(F)(F)F)oc3c21 (stereo unspecified)
91 to 92 °C | Cc1nc(Cc2ccc(N)cc2)sc1C
99 °C | CCOC(=O)c1c(Cc2ccccc2)nc2c(C(F)(F)F)cccc2c1O
146 to 148 °C | Cc1c(C)c2c(c(C)c1NC(=O)CC(C)(C)C)C(c1ccc(C3CCCCC3)cc1)CO2 (stereo unspecified)
> 250 °C | CN1CC(=O)Nc2ccc(F)cc2C1=O
285 to 290 °C | CCC(NC(=O)CC(F)(F)F)c1ccc(Cl)c2nc3n(c12)CCCN3c1ccc(Cl)cc1Cl (stereo unspecified)
312 to 314 °C | CC(C)C(=O)Nc1ccc2ncn3c(=O)c(C(=O)O)cnc3c2c1
191 to 192 °C | CSc1cc2n(c1C(=O)c1ccccc1)CCC2C(=O)O (stereo unspecified)
148 °C | O=C(c1nc(-c2ccccc2)nc2ccccc12)N1CCOCC1

melting point | SMILES
134 to 137 °C | COc1ccc2c(c1)c(C)cn2CCCCCC(=O)O
133 to 137 °C | COc1c(CN2CCOCC2)cccc1-c1nc2c(N[C@H]3[C@@H](C(N)=O)[C@@H]4C=C[C@H]3C4)c(Cl)cnc2[nH]1
206 to 207 °C | CC(C)(C)CC(=O)c1c(-c2ccc3c(Br)c(OCC(=O)O)ccc3c2)sc2ccccc12
148 to 151 °C | O=C(Nc1cccc(Cc2nnn[nH]2)c1)C(F)(F)C(F)(F)C(F)(F)F
188 to 194 °C | CC(C1=NC(C)(C)CO1)c1ccc(-c2ccc(F)cc2F)c(O)c1 (stereo unspecified)
> 300 °C | COc1cc(CNC(C)=O)c(Cl)cc1O
236 to 240 °C | CNC(=O)N1CC(Oc2ccccc2C(N)=O)C1
179 to 182 °C | Cc1cc(Cl)c(Nc2ccc(C)cc2CC(=O)O)c(Cl)c1
130 °C | CC(Br)C(=O)Nc1ccc(Cl)cc1NC1CC1 (racemic)
212 to 213 °C | CC(=O)Nc1cc2c(cc1[N+](=O)[O-])N(NC(C)=O)CC2
174 to 175 °C | CN(C)Cc1ccc(C(=O)CCC(=O)N2CCN(c3ccc(N4C[C@H](CNC(=S)C5CC5)OC4=O)cc3F)CC2)cc1
115 to 116 °C | O=C(C=C1CCCN1)c1ccccc1
149 to 150 °C | Cc1nn2c(-c3cccc(C(F)(F)F)c3)ccnc2c1C#N
56 to 57 °C | Cc1ccc(S(=O)(=O)OCCC2(OC3CCCCO3)CC2)cc1 (stereo unspecified)
177 to 178 °C | O=C(O)COc1cc(Cl)ccc1C(=O)NCc1ccc(Cl)c(Cl)c1
149 to 151 °C | CCOC(=O)c1cc(NC(C)=O)c(=O)[nH]c1C(=O)OCC

The next lines start with the compound.

SMILES | melting point
c1cc(-c2ccc(N3CCNCC3)nc2)nc(Nc2ccc3cc[nH]c3c2)n1 | 201 to 203 °C
COc1cc(COc2nn(-c3ccccc3)cc2C=O)ccc1OCc1nc(-c2ccccc2)oc1C | 142 to 143 °C
CCCC(CCNC(=O)C(C#N)=Cc1cc(O)c(O)c(OC)c1)NC(=O)C(C#N)=Cc1cc(O)c(O)c(OC)c1 (stereo unspecified) | 243 °C
Clc1ccc(-c2nc3cccnc3n2Cc2ccccn2)cc1 | 144 to 146 °C
O=C(O)Cc1onc(O)c1Cl | 155 °C
COc1cc([N+](=O)[O-])c2nc(OCc3ccc(Cl)cc3)ccc2c1 | 130 to 134 °C
O=C(c1ccc(CNc2ncnc3ccccc23)cc1)N1CCN(c2ncc(Cc3ccccc3)cn2)CC1 | 99 to 101 °C
CC(C)N(O)C(=O)Nc1ccc(S(C)(=O)=O)cc1 | 163 to 164 °C
CCC1c2cccn2-c2ccc(F)cc2N1S(=O)(=O)c1cc(C)c(OC)c(C)c1 (stereo unspecified) | 140 to 142 °C
Cc1ccc(-c2cn(C)cc(-c3ccccc3)c2=O)c(C)c1 | 153 to 155 °C
COc1ccc(-c2nc(-c3ccccc3)c(-c3ccncc3)n2C)cc1 | 193 to 194 °C
CC(c1oc2ccccc2c(=O)c1-c1cc(F)cc(F)c1)n1cnc2c(N)ncnc21 (stereo unspecified) | 267 to 269 °C
CCC[C@H](NC(=O)OCc1ccccc1)C(=O)C(N)P(=O)(OC)OC (stereo partly specified) | 82 to 84 °C
COc1cc(Nc2nccc(-c3ccc(N4CCN(CCCO)CC4)nc3)n2)cc(OC)c1OC | 116 to 117 °C
OCC1Oc2ccccc2OC1CO (stereo unspecified) | 119 to 120 °C
O=[N+]([O-])c1nccn1C1OC(CO)C(O)C1O (stereo unspecified) | 160 °C
C=Cn1cccc(O)c1=S | 84 °C
CC(C)NC(=O)c1nc(-c2ccc(F)cc2)c(-c2ccc(=O)n(C(C)C)n2)s1 | 122 to 124 °C
O=C(Nc1nc2ccc(Sc3cnc4ncccn34)cc2s1)c1ccccc1 | > 260 °C
ON=Cc1ccc(Cl)c(I)c1 | 97 to 99 °C

SMILES | melting point
CCCCCCCCC1(C)SC(=O)C=C1OCC(=O)Nc1ccc(OC)cc1 (stereo unspecified) | 99 °C
C=CCc1ccc(OCc2ccc(OC)cc2)cc1 | 59 to 61 °C
O=C(C=Cc1ccccc1C(=O)Cl)c1ccc([N+](=O)[O-])cc1 | 133 to 134 °C
CCCCC(C)(C)C(NC(=O)c1ccc(Cl)cc1)NC(=NC#N)Nc1cccnc1 (stereo unspecified) | 168 to 170 °C
c1ccc2c(c1)CC(CN1CCN(c3ccc4ccoc4c3)CC1)C2 | 168 to 170 °C
CCN1C(=O)C(C)(C)C(=O)Nc2cc(C#N)ccc21 | 215 to 218 °C
COc1ccc2c(-c3sccc3C)noc2c1Cl | 154 to 156 °C
CCCCCCCCCCCCCCCCCCNC(=O)OCC(CN(C(C)=O)S(=O)(=O)CCCCl)NC(C)=O (stereo unspecified) | 116 to 117 °C
COc1ccc2c(C(=O)c3ccc(OC4CCCCC4N4CCCCCC4)cc3)c(-c3ccc(OCCN4CCCC4)cc3)sc2c1 (stereo unspecified) | 43.5 to 51.5 °C
CCOC(=O)CCN1CCC(OC(c2ccccc2)c2ccc(C)cc2)CC1 (stereo unspecified) | 101 to 104 °C
CC(C)(C)OC(=O)NNC(=S)Nc1ccc(F)cc1 | 158 to 160 °C
CC1=CC=CC(O)(C(=N)N)C1C (stereo unspecified) | 110 to 111 °C
CCc1c(O)cc(O)c(C(=O)c2ccccc2)c1CC(=O)N1CCN(c2ccccc2C#N)C(=O)C1 | 259 to 261 °C
COc1ccc(-c2ccc3cnc(Nc4ccc(N5CCN(CC(N)=O)CC5)c(F)c4)nn23)cn1 | 217 °C
C#C[C@@H](O)C1CCCCC1 | 56 to 58 °C
COc1ccccc1-c1nc2nc(SC)nnc2c(=O)[nH]1 | 268 °C
CCOC(=O)C1=C(C)NC(C)=C(C(=O)OCCBr)C1c1cccc([N+](=O)[O-])c1 (stereo unspecified) | 158 to 159 °C
CS(=O)(=O)c1ccc(-c2cc(C(N)=O)nn2-c2ccc(C(=O)O)cc2)cc1 | 292 to 293 °C
O=C(OCc1ccccc1)c1ccc2cc(-c3ccc(CCCO)c(C45CC6CC(CC(C6)C4)C5)c3)ccc2c1 | 176 °C
